conditions: akkermansia muciniphila, 12 h, 2 µM
Description: The drug is tested on Akkermansia muciniphila strain: ATCC BAA-835 for biotransformation. The drug concentrations were measured before and after a 12-h incubation by liquid-chromatography-coupled mass spectrometry (LC–MS)

Compound	Bacterial Biotransformation
O=C(O)CCC(=O)O.O=C(O[C@H]1CN2CCC1CC2)N1CCc2ccccc2[C@@H]1c1ccccc1 [SOLIFENACIN SUCCINATE]	Compound NOT metabolized
COc1ccc(CN2CCNCC2)c(OC)c1OC.Cl.Cl [TRIMETAZIDINE DIHYDROCHLORIDE]	Compound NOT metabolized

experiment: The drug is tested on Ruminococcus lactaris strain: ATCC29176 for biotransformation. The drug concentrations were measured before and after a 12-h incubation by liquid-chromatography-coupled mass spectrometry (LC–MS); conditions: 2 µM

Compound	Bacterial Biotransformation
O=C(O)CCC(=O)O.O=C(O[C@H]1CN2CCC1CC2)N1CCc2ccccc2[C@@H]1c1ccccc1 [SOLIFENACIN SUCCINATE]	Compound NOT metabolized
COc1ccc(CN2CCNCC2)c(OC)c1OC.Cl.Cl [TRIMETAZIDINE DIHYDROCHLORIDE]	Compound NOT metabolized

experiment: The drug is tested on Eubacterium ventriosum strain: ATCC27560 for biotransformation. The drug concentrations were measured before and after a 12-h incubation by liquid-chromatography-coupled mass spectrometry (LC–MS); assay type: ADME; design: dose 2 uM, timepoint 0 vs 12 hours; conditions: 2 µM

Compound	Bacterial Biotransformation
O=C(O)CCC(=O)O.O=C(O[C@H]1CN2CCC1CC2)N1CCc2ccccc2[C@@H]1c1ccccc1 [SOLIFENACIN SUCCINATE]	Compound NOT metabolized
COc1ccc(CN2CCNCC2)c(OC)c1OC.Cl.Cl [TRIMETAZIDINE DIHYDROCHLORIDE]	Compound NOT metabolized

conditions: roseburia intestinalis, 12 h, 2 µM
Description: The drug is tested on Roseburia intestinalis strain: L1-82 for biotransformation. The drug concentrations were measured before and after a 12-h incubation by liquid-chromatography-coupled mass spectrometry (LC–MS)

Compound	Bacterial Biotransformation
O=C(O)CCC(=O)O.O=C(O[C@H]1CN2CCC1CC2)N1CCc2ccccc2[C@@H]1c1ccccc1 [SOLIFENACIN SUCCINATE]	Compound NOT metabolized
COc1ccc(CN2CCNCC2)c(OC)c1OC.Cl.Cl [TRIMETAZIDINE DIHYDROCHLORIDE]	Compound NOT metabolized

experiment: The drug is tested on Providencia rettgeri strain: DSM1131 for biotransformation. The drug concentrations were measured before and after a 12-h incubation by liquid-chromatography-coupled mass spectrometry (LC–MS); assay type: ADME; design: dose 2 uM, timepoint 0 vs 12 hours; conditions: 2 µM

Compound	Bacterial Biotransformation
O=C(O)CCC(=O)O.O=C(O[C@H]1CN2CCC1CC2)N1CCc2ccccc2[C@@H]1c1ccccc1 [SOLIFENACIN SUCCINATE]	Compound NOT metabolized
COc1ccc(CN2CCNCC2)c(OC)c1OC.Cl.Cl [TRIMETAZIDINE DIHYDROCHLORIDE]	Compound metabolized

experiment: The drug is tested on Bacteroides uniformis strain: ATCC8492 for biotransformation. The drug concentrations were measured before and after a 12-h incubation by liquid-chromatography-coupled mass spectrometry (LC–MS); conditions: 2 µM

Compound	Bacterial Biotransformation
O=C(O)CCC(=O)O.O=C(O[C@H]1CN2CCC1CC2)N1CCc2ccccc2[C@@H]1c1ccccc1 [SOLIFENACIN SUCCINATE]	Compound NOT metabolized
COc1ccc(CN2CCNCC2)c(OC)c1OC.Cl.Cl [TRIMETAZIDINE DIHYDROCHLORIDE]	Compound metabolized

experiment: The drug is tested on Enterococcus faecalis strain: V583 for biotransformation. The drug concentrations were measured before and after a 12-h incubation by liquid-chromatography-coupled mass spectrometry (LC–MS); conditions: 2 µM

Compound	Bacterial Biotransformation
O=C(O)CCC(=O)O.O=C(O[C@H]1CN2CCC1CC2)N1CCc2ccccc2[C@@H]1c1ccccc1 [SOLIFENACIN SUCCINATE]	Compound NOT metabolized
COc1ccc(CN2CCNCC2)c(OC)c1OC.Cl.Cl [TRIMETAZIDINE DIHYDROCHLORIDE]	Compound NOT metabolized

conditions: segatella copri, 12 h, 2 µM
Description: The drug is tested on Prevotella copri strain: DSM18205 for biotransformation. The drug concentrations were measured before and after a 12-h incubation by liquid-chromatography-coupled mass spectrometry (LC–MS)

Compound	Bacterial Biotransformation
O=C(O)CCC(=O)O.O=C(O[C@H]1CN2CCC1CC2)N1CCc2ccccc2[C@@H]1c1ccccc1 [SOLIFENACIN SUCCINATE]	Compound NOT metabolized
COc1ccc(CN2CCNCC2)c(OC)c1OC.Cl.Cl [TRIMETAZIDINE DIHYDROCHLORIDE]	Compound NOT metabolized

experiment: The drug is tested on Blautia hansenii strain: DSM20583 for biotransformation. The drug concentrations were measured before and after a 12-h incubation by liquid-chromatography-coupled mass spectrometry (LC–MS); conditions: 2 µM

Compound	Bacterial Biotransformation
O=C(O)CCC(=O)O.O=C(O[C@H]1CN2CCC1CC2)N1CCc2ccccc2[C@@H]1c1ccccc1 [SOLIFENACIN SUCCINATE]	Compound NOT metabolized
COc1ccc(CN2CCNCC2)c(OC)c1OC.Cl.Cl [TRIMETAZIDINE DIHYDROCHLORIDE]	Compound NOT metabolized

experiment: The drug is tested on Alistipes indistinctus strain: DSM22520 for biotransformation. The drug concentrations were measured before and after a 12-h incubation by liquid-chromatography-coupled mass spectrometry (LC–MS); conditions: 2 µM

Compound	Bacterial Biotransformation
COc1ccc(CN2CCNCC2)c(OC)c1OC.Cl.Cl [TRIMETAZIDINE DIHYDROCHLORIDE]	Compound NOT metabolized

experiment: The drug is tested on Bacteroides fragilis strain: HMW615 for biotransformation. The drug concentrations were measured before and after a 12-h incubation by liquid-chromatography-coupled mass spectrometry (LC–MS); conditions: 2 µM

Compound	Bacterial Biotransformation
O=C(O)CCC(=O)O.O=C(O[C@H]1CN2CCC1CC2)N1CCc2ccccc2[C@@H]1c1ccccc1 [SOLIFENACIN SUCCINATE]	Compound NOT metabolized

experiment: The drug is tested on Ruminococcus torques strain: ATCC27756 for biotransformation. The drug concentrations were measured before and after a 12-h incubation by liquid-chromatography-coupled mass spectrometry (LC–MS); assay type: ADME; design: dose 2 uM, timepoint 0 vs 12 hours; conditions: 2 µM

Compound	Bacterial Biotransformation
O=C(O)CCC(=O)O.O=C(O[C@H]1CN2CCC1CC2)N1CCc2ccccc2[C@@H]1c1ccccc1 [SOLIFENACIN SUCCINATE]	Compound NOT metabolized
COc1ccc(CN2CCNCC2)c(OC)c1OC.Cl.Cl [TRIMETAZIDINE DIHYDROCHLORIDE]	Compound NOT metabolized

experiment: The drug is tested on Dorea formicigenerans strain: ATCC27755 for biotransformation. The drug concentrations were measured before and after a 12-h incubation by liquid-chromatography-coupled mass spectrometry (LC–MS); conditions: 2 µM

Compound	Bacterial Biotransformation
O=C(O)CCC(=O)O.O=C(O[C@H]1CN2CCC1CC2)N1CCc2ccccc2[C@@H]1c1ccccc1 [SOLIFENACIN SUCCINATE]	Compound NOT metabolized
COc1ccc(CN2CCNCC2)c(OC)c1OC.Cl.Cl [TRIMETAZIDINE DIHYDROCHLORIDE]	Compound NOT metabolized

experiment: The drug is tested on Clostridium sporogenes strain: ATCC15579 for biotransformation. The drug concentrations were measured before and after a 12-h incubation by liquid-chromatography-coupled mass spectrometry (LC–MS); conditions: 2 µM

Compound	Bacterial Biotransformation
O=C(O)CCC(=O)O.O=C(O[C@H]1CN2CCC1CC2)N1CCc2ccccc2[C@@H]1c1ccccc1 [SOLIFENACIN SUCCINATE]	Compound NOT metabolized
COc1ccc(CN2CCNCC2)c(OC)c1OC.Cl.Cl [TRIMETAZIDINE DIHYDROCHLORIDE]	Compound NOT metabolized

experiment: The drug is tested on Bacteroides xylanisolvens strain: DSM18836 for biotransformation. The drug concentrations were measured before and after a 12-h incubation by liquid-chromatography-coupled mass spectrometry (LC–MS); conditions: 2 µM

Compound	Bacterial Biotransformation
COc1ccc(CN2CCNCC2)c(OC)c1OC.Cl.Cl [TRIMETAZIDINE DIHYDROCHLORIDE]	Compound metabolized

experiment: The drug is tested on Bifidobacterium ruminantium strain: fecal isolate for biotransformation. The drug concentrations were measured before and after a 12-h incubation by liquid-chromatography-coupled mass spectrometry (LC–MS); conditions: 2 µM

Compound	Bacterial Biotransformation
O=C(O)CCC(=O)O.O=C(O[C@H]1CN2CCC1CC2)N1CCc2ccccc2[C@@H]1c1ccccc1 [SOLIFENACIN SUCCINATE]	Compound NOT metabolized
COc1ccc(CN2CCNCC2)c(OC)c1OC.Cl.Cl [TRIMETAZIDINE DIHYDROCHLORIDE]	Compound NOT metabolized

experiment: The drug is tested on Odoribacter splanchnicus strain: fecal isolate for biotransformation. The drug concentrations were measured before and after a 12-h incubation by liquid-chromatography-coupled mass spectrometry (LC–MS); conditions: 2 µM

Compound	Bacterial Biotransformation
O=C(O)CCC(=O)O.O=C(O[C@H]1CN2CCC1CC2)N1CCc2ccccc2[C@@H]1c1ccccc1 [SOLIFENACIN SUCCINATE]	Compound NOT metabolized

conditions: anaerostipes sp., 12 h, 2 µM
Description: The drug is tested on Anaerostipes sp. strain: fecal isolate for biotransformation. The drug concentrations were measured before and after a 12-h incubation by liquid-chromatography-coupled mass spectrometry (LC–MS)

Compound	Bacterial Biotransformation
O=C(O)CCC(=O)O.O=C(O[C@H]1CN2CCC1CC2)N1CCc2ccccc2[C@@H]1c1ccccc1 [SOLIFENACIN SUCCINATE]	Compound NOT metabolized
COc1ccc(CN2CCNCC2)c(OC)c1OC.Cl.Cl [TRIMETAZIDINE DIHYDROCHLORIDE]	Compound NOT metabolized

experiment: The drug is tested on Coprococcus comes strain: ATCC27758 for biotransformation. The drug concentrations were measured before and after a 12-h incubation by liquid-chromatography-coupled mass spectrometry (LC–MS); assay type: ADME; design: dose 2 uM, timepoint 0 vs 12 hours; conditions: 2 µM

Compound	Bacterial Biotransformation
O=C(O)CCC(=O)O.O=C(O[C@H]1CN2CCC1CC2)N1CCc2ccccc2[C@@H]1c1ccccc1 [SOLIFENACIN SUCCINATE]	Compound NOT metabolized
COc1ccc(CN2CCNCC2)c(OC)c1OC.Cl.Cl [TRIMETAZIDINE DIHYDROCHLORIDE]	Compound NOT metabolized

experiment: The drug is tested on Bacteroides vulgatus strain: ATCC8482 for biotransformation. The drug concentrations were measured before and after a 12-h incubation by liquid-chromatography-coupled mass spectrometry (LC–MS); conditions: phocaeicola vulgatus, 2 µM

Compound	Bacterial Biotransformation
COc1ccc(CN2CCNCC2)c(OC)c1OC.Cl.Cl [TRIMETAZIDINE DIHYDROCHLORIDE]	Compound metabolized
